Assay results as given in publication PMC4534002 (Journal of medicinal chemistry, 2013).

Columns and labels:
CYP3A4 [1] = target: T1, CYP3A4 (Homo sapiens, UniProt P08684); assay: Spectral binding titration; conditions: WT CYP3A4, relative to ritonavir
CYP3A4 [2] = target: T1, CYP3A4; assay: Redox potential measurement of inhibitor-bound CYP3A4; conditions: for Eo,7 (midpoint redox potential of the inhibitor-bound CYP3A4): ligand-free CYP3A4 ~−300 mV, benzyl viologen as redox dye; for negative shift (decrease) in heme redox potential Eo,7 caused by ligation: relative to ligand-free CYP3A4
CYP3A4 [3] = target: T1, CYP3A4; assay: Thermal denaturation of CYP3A4-inhibitor complex, WT; type: binding; conditions: WT CYP3A4 2 µM, 10 µM inhibitor; ligand-free 52.6 ± 0.1, with 2% DMSO 52.1 ± 0.1
CYP3A4 S119A = CYP3A4 S119A (Homo sapiens, UniProt P08684, S119A); assay: Thermal denaturation of CYP3A4 S119A-inhibitor complex; type: binding; conditions: for Tm: CYP3A4 S119A mutant, ligand-free 54.0 ± 0.1, with 2% DMSO 53.5 ± 0.1; for decrease in Tm of ligand-bound S119A CYP3A4 vs wild type: S119A vs WT
CYP3A4 [4] = target: T1, CYP3A4; assay: Dissociation during repetitive concentration/dilution cycles; type: binding
CYP3A4 [5] = target: T1, CYP3A4; assay: BFC hydroxylase activity inhibition in reconstituted system with CPR; conditions: from IC50 values

Question: Which results are given for `CC(C)c1nc(CN(C)C(=O)N[C@H](C(=O)N[C@H](CC[C@H](Cc2ccccc2)NC(=O)OCc2cnco2)Cc2ccccc2)C(C)C)cs1` [compound 2]?
Answer: fold lower binding affinity for CYP3A4 than ritonavir (from Ks) (CYP3A4 [1]): 10 fold; Eo,7 (midpoint redox potential of the inhibitor-bound CYP3A4) (CYP3A4 [2]): ≈ −370 mV; negative shift (decrease) in heme redox potential Eo,7 caused by ligation (CYP3A4 [2]): ~ 50 mV; Tm (melting temperature of the CYP3A4-inhibitor complex) (CYP3A4 [3]): 54.8 ± 0.1 °C; Tm (CYP3A4 S119A): 53.2 ± 0.1 °C; decrease in Tm of ligand-bound S119A CYP3A4 vs wild type (CYP3A4 S119A): 1–1.6 °C; reversibility of binding (dissociation from CYP3A4) (CYP3A4 [4]): dissociated; fold lower inactivating potency than ritonavir (CYP3A4 [5]): 6 fold

Question: What does the source list for `CC(C)c1nc(CN(C)C(=O)N[C@H](C(=O)N[C@H](CC[C@H](Cc2ccccc2)NC(=O)OCc2cccnc2)Cc2ccccc2)C(C)C)cs1` [compound 3]?
Answer: Eo,7 (midpoint redox potential of the inhibitor-bound CYP3A4) (CYP3A4 [2]): −350 ± 5 mV; negative shift (decrease) in heme redox potential Eo,7 caused by ligation (CYP3A4 [2]): ~70 mV; Tm (melting temperature of the CYP3A4-inhibitor complex) (CYP3A4 [3]): 57.2 ± 0.2 °C; Tm (CYP3A4 S119A): 55.6 ± 0.2 °C; decrease in Tm of ligand-bound S119A CYP3A4 vs wild type (CYP3A4 S119A): 1–1.6 °C; reversibility of binding (dissociation from CYP3A4) (CYP3A4 [4]): irreversibly; fold more effective inhibition of BFC hydroxylation than ritonavir (CYP3A4 [5]): 2–4 fold

Question: Which “Eo,7 (midpoint redox potential of the inhibitor-bound CYP3A4)” value (CYP3A4 [2]) does the source give for `CC(C)c1nc(CN(C)C(=O)N[C@H](C(=O)N[C@H](CC[C@H](Cc2ccccc2)NC(=O)OCc2cnc[nH]2)Cc2ccccc2)C(C)C)cs1` [compound 1] here?
Answer: The value was <<-370 mV.

Question: What about the “negative shift (decrease) in heme redox potential Eo,7 caused by ligation” value (CYP3A4 [2]) of the same compound?
Answer: The value was > 70 mV.

Question: And the “Tm (melting temperature of the CYP3A4-inhibitor complex)” value (CYP3A4 [3])?
Answer: The value was 56.5 ± 0.2 °C.

Question: And the Tm (CYP3A4 S119A)?
Answer: Its Tm is 55.5 ± 0.2 °C.

Question: And the “decrease in Tm of ligand-bound S119A CYP3A4 vs wild type” value (CYP3A4 S119A)?
Answer: Its value is 1–1.6 °C.

Question: And the “reversibility of binding (dissociation from CYP3A4)” value (CYP3A4 [4])?
Answer: The value was “dissociated”.
